Measured values published in US20180228815A1, “NARINGENIN AND ASIATIC ACID COMBINATION TREATMENT OF CANCERS” (The Chinese University of Hong Kong, priority 2016, published 2018).
Like-named read-outs stand apart in the source and are kept apart here.

Legend:
[1] = format: in vivo
Description: FIG. 1. Determination of a safe dosage of AA or NG in normal mice. Groups of 4 normal mice were treated with different dosages of asiatic acid (AA) or naringenin (NG) for two weeks and various parameters were measured to determine a safe dosage for the use as therapeutic dose in cancer-bearing mice. As indicated by a highlighted box, AA at 10 mg/kg and NG at 50 mg/kg was selected. Each bar represents the mean±SEM for groups of 4 mice. * p<0.05, ** p<0.01 compared to untreated mice (BLK)
A safe dosage of HLPC-purified naringenin (NG) and asiatic acid (AA) was first determined in normal mice by peritoneal injection with different dosages of AA or NG for toxicity assays and a dose of AA at 10 mg/kg body weight and NG at 50 mg//Kg body weight is selected for further examination of the therapeutic efficacy on cancer (FIG. 1). The effects of combined use of a safe dosage of naringenin (NG, 10 mg/kg) and asiatic acid (AA, 50 mg/kg) at a ratio of […] was selected and the therapeutic effect on cancer was tested in two syngeneic mouse models of invasive lung carcinoma (LLC) and melanoma (B16F10). […] Thus, the combination of NG and AA presents as a new emerging and promising therapy for tumor.

[2] = test system: B16F10 tumor cells; assay: TGF-beta1-induced VEGF mRNA expression by tumor cells (real-time PCR); format: cell-based
[3] = Systemic toxicity in B16F10 melanoma-bearing mice; conditions: mouse, in vivo
From the text: FIG. 5. […] Each bar represents the mean±SEM for groups of 6 mice.

[4] = test system: B16F10 melanoma cells; assay: NK cell cytotoxicity assay (LDH release); format: cell-based, mouse; conditions: E:T ratio of 5:1, 10:1 and 20:1
Description: It was next assessed whether the combination therapy enhances the tumor-killing capacity of NK cells by co-culturing […] NK cells with B16F10 melanoma cells at ratio of 5:1, 10:1 and 20:1. […] B16F10 melanoma cells were harvested as target cells and bone marrow-derived NK cells treated with AA or NG for 24 hours were harvested as effector cells. Cells were thoroughly washed and seeded in 96-well plates at the effector: target (E:T) ratios of 5:1, 10:1 and 20:1. Incubated in 5% CO2 incubator at 37° C. for 6 hours then detect the LDH release of each well with CytoTox 96® Non-Radioactive Cytotoxicity Assay kit (Promega Corporation, WI, USA). Read absorbance at 490 nm and calculated the percentage of NK cell mediated cytotoxicity with the following formula.

[5] = test system: p-Smad3, Smad7; assay: Western blot of p-Smad3 and Smad7 in bone marrow-derived NK cells with TGF-β1; format: cell-based, mouse; conditions: 10 μM of AA, 100 μM of NG; TGF-β1 (5 ng/ml)
Description: FIGS. 14A-14C. […] (FIGS. 14A, 14B) Two-color immunofluorescence detecting NK1.1+ p-Smad3+ and NK1.1+ Smad7+ NK cells in LLC tumor microenvironment. NK1.1+ cells (green), p-Smad3+ or Smad7+ cells (red), DAPI (blue). […] Scale bar, […]. […] To further explore the mechanism of combination therapy facilitating NK cell immunity against cancer in TGF-β rich microenvironment, 10 μM of AA and 100 μM of NG (according to the molar ratio in vivo) were applied on bone marrow-derived NK cells in vitro. […] After euthanasia, bone marrow cells were isolated from C57BL/6 mice following the protocol as previously described (10). Bone marrow cells were then seeded at the density of 1×10^6 cells/ml in MEMα medium (Gibco, Thermo Fisher Scientific Inc., MA, USA) containing 10% FBS supplemented with 1 ng/ml IL-7, 10 ng/ml Flt3L, 30 ng/ml SCF, 50 ng/ml IL-15 (Peprotech, NJ, USA) and […] β-Mercaptoethanol (Gibco, Thermo Fisher Scientific Inc., MA, USA) and cultured for 4 days. Then transferred cells to MEMα medium containing 10% FBS supplemented with 50 ng/ml IL-15, 20 ng/ml IL-2 and […] β-Mercaptoethanol to induce NK cells maturation for another 3 days. Tumor tissues and cultured NK cells were lysed with ice-cold RIPA buffer, and then protein was isolated as previously described (2 6). Membranes were blocked with 5% BSA in PBS for 1 hour at room temperature before incubated with primary antibodies against Smad7, Id2, β-actin (Santa Cruz Biotechnology, Santa Cruz, Calif., USA), p-Smad3 and IRF2 (Cell signaling, MA, USA) overnight at 4° C., subsequently incubated with IRDye 800-conjugated secondary antibodies (Rockland immunochemicals, PA, USA). Target protein expression was then detected by LiCor/Odyssey infrared image system (LI-COR Biosciences, NE, USA) and analyzed with Image J software (NIH, Bethesda, Md., USA).

[6] = test system: bone marrow-derived NK cells; assay: Flow cytometry of bone marrow-derived NK cell differentiation (NK1.1+ CD122+); format: cell-based, mouse; conditions: TGF-β1 (5 ng/ml)
Description: FIGS. 15A-15B. Combination of AA and NG attenuates TGF-β1 induced inhibition on NK cell differentiation. […] (FIG. 15B) Flow cytometry detects that the effect of AA, NG, and their combination on bone marrow-derived NK differentiation in response to TGF-β1 (5 ng/ml). Each error bar represents the mean±SEM for groups of three independent experiments. *** p<0.001 compared to TGF-β1; ### p<0.001 as indicated.
After euthanasia, bone marrow cells were isolated from C57BL/6 mice following the protocol as previously described (10). Bone marrow cells were then seeded at the density of 1×10^6 cells/ml in MEMα medium (Gibco, Thermo Fisher Scientific Inc., MA, USA) containing 10% FBS supplemented with 1 ng/ml IL-7, 10 ng/ml Flt3L, 30 ng/ml SCF, 50 ng/ml IL-15 (Peprotech, NJ, USA) and […] β-Mercaptoethanol (Gibco, Thermo Fisher Scientific Inc., MA, USA) and cultured for 4 days. Then transferred cells to MEMα medium containing 10% FBS supplemented with 50 ng/ml IL-15, 20 ng/ml IL-2 and […] β-Mercaptoethanol to induce NK cells maturation for another 3 days.
Peripheral blood NK cells and cultured NK cells were analyzed using various markers as previously described (10), including rat anti-mouse CD16/CD32 antibody (BD Pharmingen, BD Biosciences, CA, USA), APC-conjugated anti-mouse NK1.1, PE-conjugated anti-mouse NKp46, PE-conjugated anti-mouse CD122 (eBioscience Inc., CA, USA) and Alexa 488-conjugated anti-mouse/human CD11b Antibody (Biolegend, CA, USA). After immunostaining, cells were resuspended with 200 μl staining buffer and analyzed with BD Accuri™ C6 Cytometer (BD Biosciences, CA, USA).

With `C[C@H]1[C@H](C)CC[C@]2(C(=O)O)CC[C@]3(C)C(=CC[C@@H]4[C@@]5(C)C[C@@H](O)[C@H](O)[C@@](C)(CO)[C@@H]5CC[C@]43C)[C@H]12` [AA, Asiatic acid] the “safe dosage selected for use as therapeutic dose” value ([1]; mouse, in vivo, 2 weeks) was 10 mg/kg, the “TGF-beta1-induced angiogenesis (VEGF mRNA expression)” value ([2]; B16F10 cultured with TGF-beta1 (2 ng/ml), AA at luM) was “significantly inhibit” and the “systemic toxicity (peripheral white blood cell counts, serum LDH, AST and ALT, creatinine)” value [3] was “do not cause systemic toxicity”. For the same compound, the “NK cell-mediated cytotoxicity against melanoma cells” value [4] was “increased”, the “TGF-β1-increased phosphorylation level of Smad3” value [5] was “attenuated” and the “TGF-β1-induced suppression of Smad7 expression” value [5] was “capable of restoring”. The “inhibitory effect of TGF-β1 on NK cell development (NK1.1+ CD122+)” value [6] was “moderately attenuated”.

For `O=C1CC(c2ccc(O)cc2)Oc2cc(O)cc(O)c21` (centres unmarked) [NG, 5,7-dihydroxy-2-(4-hydroxyphenyl)chroman-4-one], the “safe dosage selected for use as therapeutic dose” value ([1]; normal mice treated for two weeks, groups of 4) was 50 mg/kg, the “TGF-beta1-induced angiogenesis (VEGF mRNA expression), inhibition by AA with NG added” value ([2]; B16F10 with TGF-beta1 (2 ng/ml), NG from 0.5 to 250 uM added to AA at luM) was “enhanced” and the “systemic toxicity (peripheral white blood cell counts, serum LDH, AST and ALT, creatinine)” value [3] was “do not cause systemic toxicity”. For the same compound, the “NK cell-mediated cytotoxicity against melanoma cells” value [4] was “increased”, the “TGF-β1-increased phosphorylation level of Smad3” value [5] was “attenuated” and the “TGF-β1-induced suppression of Smad7 expression” value [5] was “capable of restoring”. The “inhibitory effect of TGF-β1 on NK cell development (NK1.1+ CD122+)” value [6] was “moderately attenuated”.
